Reference: ChEMBL document CHEMBL4251742, “Modulating ADME Properties by Fluorination: MK2 Inhibitors with Improved Oral Exposure” (ACS Med Chem Lett, 2018)
In brackets after ≈: the same amount, converted by molar mass.

How the values were obtained:
[1] = (§1) Oral bioavailability in Sprague-Dawley rat at 3 mg/kg administered as single cassette dose by LC-MS/MS analysis; assay type: ADME, organism-based; settings: Sprague-Dawley, in vivo
Rattus norvegicus [2] = assay: Dose normalized AUC in Sprague-Dawley rat at 3 mg/kg, po administered as single cassette dose by LC-MS/MS analysis; assay type: ADME, organism-based; settings: in vivo
[3] = Clearance in Sprague-Dawley rat at 1 mg/kg, iv administered as single cassette dose by LC-MS/MS analysis; assay type: ADME, organism-based; settings: in vivo
Blood = assay: tissue or blood; settings: Homo sapiens
[4] = Aqueous solubility of the compound; assay type: physicochemical; settings: buffer
[5] = Lipophilicity, log D of compound at pH 7.4; settings: buffer
[6] = Permeability of the compound by PAMPA; assay type: ADME
Rattus norvegicus [7] = assay: as §1; assay type: ADME, organism-based; settings: in vivo
PBMC = assay: cells; settings: Homo sapiens
Rattus norvegicus [8] = assay: Dose normalized AUC in Sprague-Dawley rat at 3 mg/kg, po administered as single cassette dose measured over 8 hrs by LC-MS/MS analysis; assay type: ADME, organism-based; settings: in vivo
[9] = Clearance in Sprague-Dawley rat at 1 mg/kg, iv administered as single cassette dose measured over 8 hrs by LC-MS/MS analysis; assay type: ADME, organism-based; settings: in vivo
[10] = Oral bioavailability in Sprague-Dawley rat at 3 mg/kg administered as single cassette dose measured over 8 hrs by LC-MS/MS analysis; assay type: ADME, organism-based; settings: in vivo
[11] = molecular target: T1, MAP kinase-activated protein kinase 2 (Homo sapiens, UniProt P49137); assay: Inhibition of MK2 in anisomycin-stimulated human THP1 cells assessed as reduction in hsp27 phosphorylation at Ser78 by FACS analysis
[12] = molecular target: T1, MAP kinase-activated protein kinase 2; assay: Inhibition of human MK2 using hsp27 peptide biotinyl-AYSRALSRQLSSGVSEIRCOOH as substrate after 45 mins by TR-FRET assay

T1 sequence (P49137 whole entry): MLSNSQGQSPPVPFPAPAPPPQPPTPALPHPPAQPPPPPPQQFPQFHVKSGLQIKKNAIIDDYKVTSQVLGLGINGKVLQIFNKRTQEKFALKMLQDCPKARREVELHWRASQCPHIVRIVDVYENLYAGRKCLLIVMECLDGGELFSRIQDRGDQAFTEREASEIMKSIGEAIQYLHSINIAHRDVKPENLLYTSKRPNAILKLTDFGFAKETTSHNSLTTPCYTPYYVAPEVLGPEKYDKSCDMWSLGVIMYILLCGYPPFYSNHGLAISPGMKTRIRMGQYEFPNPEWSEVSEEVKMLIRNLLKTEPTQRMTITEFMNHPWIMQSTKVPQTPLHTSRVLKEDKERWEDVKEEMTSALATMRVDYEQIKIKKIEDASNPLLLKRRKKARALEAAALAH

| bioavailability [1] [%] | AUC/dose (Rattus norvegicus [2]) [nmol·h/L] | clearance [3] [mL/min/kg] | IC50 (Blood) [nM] | solubility [4] [µg/mL] | logD [5] | log(permeability) [6] | F (Rattus norvegicus [7]) [%] | AUC/dose (Rattus norvegicus [8]) [nmol·h/L] | clearance [9] [mL/min/kg] | bioavailability [10] [%] | IC50 [11] [nM] | IC50 [12] [nM] | SMILES | IC50 (PBMC) [nM] |
| --- | --- | --- | --- | --- | --- | --- | --- | --- | --- | --- | --- | --- | --- | --- |
| 27 | 121 | 100 | 670 | 32 (≈ 82.4 µM) | 3.4 | -5.2 |  |  |  |  |  |  | CN1CC2(CNC(=O)c3c2[nH]c2c3CCc3cnc(-c4cccc(F)c4)cc3-2)C1 |  |
|  | 2154 | 30 |  |  |  | -4.6 | 151 |  |  |  |  |  | CN1CC2(CNC(=O)c3c2[nH]c2c3CCc3cnc(-c4cccc(F)c4)nc3-2)C1 |  |
| 81 | 3486 | 11 | 1650 | 4 (≈ 9.84 µM) | 3.2 | -4.1 |  |  |  |  |  |  | CN1CC2(CNC(=O)c3c2[nH]c2c3CCc3cnc(-c4cccc(F)c4)c(F)c3-2)C1 | 550 |
| 60 | 1301 | 20 | 800 |  | 3.3 | -4.5 |  |  |  |  |  |  | COc1ccc(-c2ncc3c(c2F)-c2[nH]c4c(c2CC3)C(=O)NCC42CN(C)C2)cc1F | 240 |
|  |  |  |  |  | 3.7 | -3.9 |  | 2415 | 10 | 53 |  |  | CN1CC2(CNC(=O)c3c4c(n(C)c32)-c2cc(-c3cccc(Cl)c3)ncc2CC4)C1 |  |
| 77 | 1766 | 19 | 590 |  | 2.8 | -4.8 |  |  |  |  | 480 | < 3 | COc1ccc(-c2ncc3c(c2F)-c2[nH]c4c(c2CC3)C(=O)NCC42CN(C)C2)cn1 | 490 |
